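1) Cells in 96-well plates. 2) Compound, 48 h, 5 concentrations. 3) Linear interpolation between surrounding doses. 4) Unreached endpoint = highest concentration. GI50 is the concentration that inhibits growth by half.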 Active and inactive are the calls of the source. Rule as the data show it: active = GI50 up to about 1.1 µM and inactive = higher.
What was measured:
Assay in all cases: NCI-60 cell line screen, 48 h
SNB-75 = tested on: SNB-75
HOP-62 = tested on: HOP-62
COLO 205 = tested on: COLO 205
UACC-257 = tested on: UACC-257
OVCAR-4 = tested on: OVCAR-4
T47D = tested on: T47D
CCRF-CEM = tested on: CCRF-CEM
ACHN = tested on: ACHN
DU-145 = tested on: DU-145
SNB-19 = tested on: SNB-19
NCI-H460 = tested on: NCI-H460
OVCAR-5 = tested on: OVCAR-5
Hs-578T = tested on: Hs-578T
PC-3 = tested on: PC-3
HL-60 = tested on: HL-60
SN12C = tested on: SN12C
NCI/ADR-RES = tested on: NCI/ADR-RES
RXF 393 = tested on: RXF 393
UO-31 = tested on: UO-31
SK-MEL-5 = tested on: SK-MEL-5

Measured: GI50

N=C(N)SCc1ccc2c(c1)S(=O)(=O)c1ccccc1O2
inactive: SNB-75 14.6 µM | HOP-62 19 µM | COLO 205 29 µM | UACC-257 16.3 µM | OVCAR-4 22.3 µM | T47D 22.5 µM | CCRF-CEM 10.5 µM | ACHN 15.8 µM | DU-145 32.4 µM | SNB-19 61.1 µM | NCI-H460 19.6 µM | OVCAR-5 22 µM | Hs-578T 22.9 µM | PC-3 17.7 µM | HL-60 14.9 µM | SN12C 37.5 µM | NCI/ADR-RES 39.8 µM | RXF 393 21.2 µM | UO-31 15.2 µM

COc1ccc2c(c1)OC1c3ccccc3OCC21 (configuration not stated)
inactive: SNB-75 27.4 µM | HOP-62 > 100 µM | COLO 205 > 100 µM | UACC-257 > 100 µM | OVCAR-4 > 100 µM | T47D 72.6 µM | CCRF-CEM 58.7 µM | SK-MEL-5 24.7 µM | ACHN > 100 µM | DU-145 > 100 µM | SNB-19 93.3 µM | NCI-H460 61.9 µM | OVCAR-5 > 100 µM | Hs-578T > 100 µM | PC-3 > 100 µM | HL-60 34.6 µM | SN12C > 100 µM | NCI/ADR-RES 60.3 µM | RXF 393 77.4 µM | UO-31 48.9 µM

COc1cccc2c1/c(=C/c1ccc(N(C)C)cc1)c1cc(-c3ccccc3)[n+](C)n12
inactive: NCI/ADR-RES 3.19 µM
active: SNB-75 0.189 µM | HOP-62 0.218 µM | COLO 205 0.0272 µM | UACC-257 0.113 µM | OVCAR-4 0.344 µM | T47D 0.0964 µM | CCRF-CEM 0.0571 µM | SK-MEL-5 0.155 µM | ACHN 0.216 µM | DU-145 0.0986 µM | SNB-19 0.0933 µM | NCI-H460 0.106 µM | OVCAR-5 0.509 µM | Hs-578T 0.147 µM | PC-3 0.0321 µM | HL-60 0.0155 µM | SN12C 0.0331 µM | RXF 393 0.528 µM | UO-31 0.295 µM

CCCCCCCCCC1(N=[N+]=[N-])C(=O)c2ccccc2N(C)C1=O (configuration not stated)
inactive: SNB-75 29.9 µM | HOP-62 35.8 µM | COLO 205 32 µM | UACC-257 32.9 µM | OVCAR-4 67.1 µM | T47D 3.4 µM | CCRF-CEM 16.8 µM | SK-MEL-5 13 µM | ACHN 32.3 µM | DU-145 28.7 µM | SNB-19 54.7 µM | NCI-H460 37.2 µM | OVCAR-5 31.9 µM | Hs-578T 24.3 µM | PC-3 19.4 µM | HL-60 > 100 µM | SN12C 26.1 µM | NCI/ADR-RES 26.7 µM | RXF 393 22.6 µM | UO-31 19.4 µM

CCNC(C)(C)C(SS)c1ccc(Br)cc1 (configuration not stated)
inactive: SNB-75 > 100 µM | HOP-62 63.1 µM | COLO 205 62.1 µM | UACC-257 28.3 µM | OVCAR-4 44.5 µM | T47D 24 µM | CCRF-CEM 20.3 µM | SK-MEL-5 91.4 µM | ACHN > 100 µM | DU-145 > 100 µM | SNB-19 > 100 µM | NCI-H460 31.1 µM | OVCAR-5 > 100 µM | Hs-578T > 100 µM | PC-3 60.5 µM | HL-60 21.9 µM | SN12C 32.6 µM | NCI/ADR-RES > 100 µM | RXF 393 46 µM | UO-31 79.1 µM

C=C1C(=O)OC2/C=C(/C)C(OC(C)=O)C/C=C(\C)C(OC(=O)C3(C)OC3C)C(O)C12 (configuration not stated)
inactive: SNB-75 97.7 µM | HOP-62 > 100 µM | COLO 205 55.7 µM | UACC-257 > 100 µM | OVCAR-4 > 100 µM | T47D > 100 µM | CCRF-CEM 34 µM | SK-MEL-5 > 100 µM | ACHN > 100 µM | DU-145 > 100 µM | SNB-19 > 100 µM | NCI-H460 > 100 µM | OVCAR-5 > 100 µM | Hs-578T > 100 µM | PC-3 > 100 µM | HL-60 30.3 µM | SN12C > 100 µM | NCI/ADR-RES > 100 µM | RXF 393 > 100 µM

NS(=O)(=O)c1cc(Cl)c(NC(=S)NC(=O)Nc2ccc(Cl)c(Cl)c2)c(Cl)c1
inactive: SNB-75 59.8 µM | HOP-62 > 100 µM | COLO 205 18 µM | UACC-257 29.9 µM | OVCAR-4 47.4 µM | T47D 23.8 µM | CCRF-CEM 6.97 µM | SK-MEL-5 18.3 µM | ACHN 34.1 µM | DU-145 67 µM | SNB-19 42.9 µM | NCI-H460 30.2 µM | OVCAR-5 80.5 µM | Hs-578T > 100 µM | PC-3 33.9 µM | HL-60 21.8 µM | SN12C 36.8 µM | NCI/ADR-RES 37.4 µM | RXF 393 41.3 µM | UO-31 44.1 µM

O=C1c2ccccc2C(=O)N1CCCC(=O)n1cc(F)c(=O)[nH]c1=O
inactive: SNB-75 37 µM | HOP-62 8.26 µM | COLO 205 6.62 µM | UACC-257 > 75.2 µM | OVCAR-4 > 100 µM | T47D > 33.7 µM | CCRF-CEM 18.6 µM | SK-MEL-5 12.3 µM | ACHN 15.8 µM | DU-145 10.1 µM | SNB-19 49.1 µM | NCI-H460 2.68 µM | Hs-578T > 100 µM | PC-3 30.1 µM | HL-60 7.78 µM | SN12C > 26.1 µM | NCI/ADR-RES 7.98 µM | RXF 393 > 47.4 µM | UO-31 11.4 µM

Cc1nc2cn3c(c2c(=O)[nH]1)CCCCC3
inactive: SNB-75 > 100 µM | HOP-62 > 100 µM | COLO 205 > 100 µM | UACC-257 > 100 µM | OVCAR-4 > 100 µM | T47D > 100 µM | CCRF-CEM > 100 µM | SK-MEL-5 > 100 µM | ACHN > 100 µM | DU-145 > 100 µM | SNB-19 > 100 µM | NCI-H460 > 100 µM | Hs-578T > 100 µM | PC-3 > 100 µM | HL-60 > 100 µM | NCI/ADR-RES > 100 µM | RXF 393 > 100 µM | UO-31 > 100 µM

CN1CCc2c(sc3ncn(Nc4ccc(Cl)cc4)c(=N)c23)C1
inactive: SNB-75 > 100 µM | HOP-62 > 100 µM | COLO 205 > 100 µM | UACC-257 > 100 µM | OVCAR-4 > 100 µM | T47D > 100 µM | CCRF-CEM > 100 µM | SK-MEL-5 > 100 µM | ACHN > 100 µM | DU-145 > 100 µM | SNB-19 > 100 µM | NCI-H460 > 100 µM | OVCAR-5 > 100 µM | Hs-578T > 100 µM | PC-3 > 100 µM | HL-60 > 100 µM | SN12C > 100 µM | NCI/ADR-RES > 100 µM | RXF 393 > 100 µM

N#Cc1c(N)nc2c(c1-c1ccc(Br)cc1)CSc1ccccc1-2
inactive: SNB-75 31.4 µM | HOP-62 50.1 µM | COLO 205 13.3 µM | UACC-257 13.9 µM | OVCAR-4 24.6 µM | T47D 17.4 µM | CCRF-CEM 22.4 µM | SK-MEL-5 58.7 µM | DU-145 96.6 µM | SNB-19 39.7 µM | NCI-H460 25.8 µM | Hs-578T 22.8 µM | PC-3 16.7 µM | HL-60 33.7 µM | SN12C 30 µM | NCI/ADR-RES 22 µM | RXF 393 20.1 µM | UO-31 33.8 µM

Cc1cc(S(=O)(=O)/N=C(\NN)NNc2cccc(C(F)(F)F)n2)c(S)cc1Cl
inactive: SNB-75 14.6 µM | HOP-62 19.6 µM | COLO 205 19.5 µM | UACC-257 32.6 µM | OVCAR-4 14.4 µM | T47D 17.8 µM | CCRF-CEM 23.3 µM | SK-MEL-5 20 µM | ACHN 21.4 µM | DU-145 18.5 µM | SNB-19 24.3 µM | NCI-H460 26.9 µM | OVCAR-5 14.9 µM | Hs-578T 22.2 µM | PC-3 17.3 µM | HL-60 27.4 µM | SN12C 30.6 µM | NCI/ADR-RES 19.8 µM | RXF 393 29 µM | UO-31 18.9 µM

Cc1cc2c(cc1C)[n+]([O-])c(N1CCN(c3ccc([N+](=O)[O-])cc3)CC1)c(C#N)[n+]2[O-]
inactive: SNB-75 4.61 µM | HOP-62 15.2 µM | COLO 205 > 100 µM | UACC-257 85.9 µM | OVCAR-4 39.4 µM | T47D 16.3 µM | CCRF-CEM > 100 µM | SK-MEL-5 75.7 µM | ACHN 15.3 µM | DU-145 32.8 µM | SNB-19 18 µM | NCI-H460 20.3 µM | OVCAR-5 37.6 µM | Hs-578T 34.6 µM | PC-3 32.3 µM | HL-60 > 100 µM | SN12C 35.3 µM | NCI/ADR-RES 26.2 µM | RXF 393 13 µM | UO-31 23.5 µM

CC1=CC(=O)[C@@H](O)[C@]2(C)[C@H]3[C@@]4(O)OC[C@]35[C@H]([C@@H](C)[C@H]4O)[C@@H](OC(=O)C(C)(C)CO)C(=O)O[C@@H]5C[C@@H]12
inactive: COLO 205 1.73 µM | NCI/ADR-RES 2.32 µM
active: SNB-75 0.045 µM | HOP-62 0.0989 µM | UACC-257 0.118 µM | OVCAR-4 0.122 µM | T47D 0.0209 µM | CCRF-CEM 0.0362 µM | SK-MEL-5 < 0.0204 µM | ACHN 0.208 µM | DU-145 0.305 µM | SNB-19 0.05 µM | NCI-H460 0.0568 µM | OVCAR-5 0.701 µM | Hs-578T 0.046 µM | PC-3 0.0698 µM | HL-60 0.0243 µM | SN12C 0.191 µM | RXF 393 0.237 µM | UO-31 0.316 µM

Source: ChEMBL document CHEMBL1201862, “PubChem BioAssay data set” (2004)
